Data as given in publication PMC10296347, “Identification of the Stapled α-Helical Peptide ATSP-7041 as a Substrate and Strong Inhibitor of OATP1B1 In Vitro” (Biomolecules, 2023).
Blank lines part the entries; values can stand above or below the compound they belong to.

Key:
[1] = target: T1, OATP1B1 (Homo sapiens, UniProt Q9Y6L6)
T1 sequence (Q9Y6L6 1-691): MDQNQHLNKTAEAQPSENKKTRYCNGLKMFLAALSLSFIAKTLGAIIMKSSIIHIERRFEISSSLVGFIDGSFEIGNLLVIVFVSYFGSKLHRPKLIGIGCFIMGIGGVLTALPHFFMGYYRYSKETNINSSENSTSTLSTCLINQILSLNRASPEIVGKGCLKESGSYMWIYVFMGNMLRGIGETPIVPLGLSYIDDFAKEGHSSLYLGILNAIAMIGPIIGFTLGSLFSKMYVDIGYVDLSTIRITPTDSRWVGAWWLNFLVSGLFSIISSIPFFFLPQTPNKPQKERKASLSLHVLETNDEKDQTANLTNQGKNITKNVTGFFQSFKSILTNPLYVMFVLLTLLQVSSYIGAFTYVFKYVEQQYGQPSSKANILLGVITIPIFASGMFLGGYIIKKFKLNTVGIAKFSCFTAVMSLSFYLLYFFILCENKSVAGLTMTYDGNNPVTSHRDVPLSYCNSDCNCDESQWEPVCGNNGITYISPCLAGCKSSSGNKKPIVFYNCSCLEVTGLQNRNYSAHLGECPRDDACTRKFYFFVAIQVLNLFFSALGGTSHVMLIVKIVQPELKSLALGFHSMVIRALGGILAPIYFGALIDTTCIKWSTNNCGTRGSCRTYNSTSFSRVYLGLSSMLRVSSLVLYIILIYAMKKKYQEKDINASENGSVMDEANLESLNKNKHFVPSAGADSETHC
Protocol: (§1) The evaluation of ATSP-7041 as a substrate for OATP1B1 was performed using OATP1B1-expressing HEK293 cells in 24- or 96-well plates according to the manufacturer’s protocol (v1.9 for OATP1B1) with minor modifications. In brief, after equilibration with the transport buffer, the buffer was replaced with a fresh transport buffer containing the indicated concentrations of ATSP-7041 or 1 μM E217βG in the presence or absence of positive control inhibitors (50 μM rifampicin or 10 μM cyclosporine). After incubation for the indicated time at 37 °C, the cells were immediately rinsed twice with an ice-cold transport buffer. Substrates were extracted by incubation with 400 μL (for 24-well) or 100 μL (for 96-well) of 0.1% formic acid in acetonitrile-containing internal standard (IS) (0.125 μM benzyl-ATSP-7041 for ATSP-7041 in uptake experiment of various concentrations of ATSP-7041 or 0.0125 μM for ATSP-7041 in all other experiments of benzyl-ATSP-7041 and 0.1 μM estradiol-3β-glucuronide) for 5 min at 20–25 °C, filtered using a PVDF-based filter, diluted 1.4 times (ATSP-7041) or 2 times (E217βG) with water, and analyzed using LC/MS.

[2] = target: T2, OATP1B3 (Homo sapiens, UniProt Q9NPD5); assay: Uptake by OATP1B3-expressing HEK293 cells (substrate evaluation); conditions: E217βG 3 μM, 5 min, 37 °C
T2 sequence (Q9NPD5 1-702): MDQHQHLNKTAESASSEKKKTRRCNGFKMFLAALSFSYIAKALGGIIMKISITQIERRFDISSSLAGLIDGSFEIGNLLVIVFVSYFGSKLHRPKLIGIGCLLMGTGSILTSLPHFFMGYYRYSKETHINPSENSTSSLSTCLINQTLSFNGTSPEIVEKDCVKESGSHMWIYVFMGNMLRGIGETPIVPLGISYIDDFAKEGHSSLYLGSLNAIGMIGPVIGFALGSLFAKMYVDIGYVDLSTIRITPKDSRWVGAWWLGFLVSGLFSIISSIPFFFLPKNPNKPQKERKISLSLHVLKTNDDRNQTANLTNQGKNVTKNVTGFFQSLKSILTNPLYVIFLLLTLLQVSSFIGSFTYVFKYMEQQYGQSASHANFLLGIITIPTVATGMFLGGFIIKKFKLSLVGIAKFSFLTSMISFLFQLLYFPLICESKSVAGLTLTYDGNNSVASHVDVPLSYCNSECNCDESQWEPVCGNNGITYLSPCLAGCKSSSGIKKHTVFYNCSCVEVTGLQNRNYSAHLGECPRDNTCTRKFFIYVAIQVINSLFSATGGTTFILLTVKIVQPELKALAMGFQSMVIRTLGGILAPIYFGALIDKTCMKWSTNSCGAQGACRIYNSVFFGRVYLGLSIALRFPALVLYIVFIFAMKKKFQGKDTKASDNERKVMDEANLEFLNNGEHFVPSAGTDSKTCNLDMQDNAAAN
Protocol: after the time course assessment (0, 5, 10, 20, 30, 40, and 60 min). Similarly, the inhibitory […]
measuring testosterone and 6β-hydroxytestosterone at 90 min, after the time course assessment (0, 10, 20, 40, 60, 90, and 120 min). Other human liver S9 (B, C, and D) fractions were also used to evaluate vendor differences. Midazolam, 1ʹ-hydroxymidazolam, testosterone, and 6β-hydroxytestosterone were detected using LC/MS.
4. Evaluation of ATSP-7041 as a substrate of transporters
The evaluation of ATSP-7041 as a substrate for OATP1B1 and OATP1B3 transporters was performed using OATP1B-expressing HEK293 cells in 24-well plates according to the manufacturer’s protocol (v1.9 for OATP1B1 and v2.0 for OATP1B3) with minor modifications.
In brief, after equilibration with the transport buffer, the buffer was replaced with a fresh transport buffer containing ATSP-7041 (0.2 μM) or E217βG (1 μM for OATP1B1 or 3 μM for OATP1B3). After incubation for 5 min at 37 °C, the cells were immediately rinsed twice with ice-cold transport buffer. Substrates were extracted by incubation with 400 μL of 0.1% formic acid in acetonitrile containing IS (0.0125 μM benzyl-ATSP-7041 and 0.1 μM estradiol-3β-glucuronide) for 5 min at 20-25 °C, filtered using a PVDF-based filter, diluted 1.4 times (ATSP-7041) or 2 times (E217βG) with water, and analyzed by LC/MS. […]

[3] = target: T1, OATP1B1; assay: Uptake by OATP1B1-expressing HEK293 cells (substrate evaluation); conditions: E217βG 1 μM, 5 min, 37 °C
Protocol: as §1
LC/MS analysis data were quantified using Trace Finder 4.1 (Thermo Fisher Scientific, Waltham, MA, USA) for peak detection and area quantification. […] Differences in all figures were analyzed and all data were plotted using GraphPad Prism 9 (GraphPad Software). […]

[4] = target: T1, OATP1B1; remark: listed apart in the source
Protocol: The inhibitory activities of ATSP-7041 on OATP1B1 were evaluated using OATP1B-expressing HEK293 cells in 96-well plates as described above. For dose-dependent inhibition, ATSP-7041 at the indicated concentrations was added to the transport buffer, and E217βG was used as the substrate. To study the pre-incubation effect, the cells were pre-incubated with 10 μM ATSP-7041 or 10 μM cyclosporine in transport buffer after equilibration with the transport buffer for 30 min at 37 °C and washed twice before the replacement of the transport buffer containing E217βG.
LC/MS analysis data were quantified using Trace Finder 4.1 (Thermo Fisher Scientific, Waltham, MA, USA) for peak detection and area quantification. To study the transport activities of OATP1B1, the OATP1B1-mediated uptake of ATSP-7041 and E217βG was determined by normalization with IS (divide the area of ion peak) and subsequent background-corrected uptake using mock cells. To evaluate the inhibitory activities of ATSP-7041 on OATP1B1, transporter activities were determined as a percent of the control (activities without ATSP-7041) at each concentration, and the half maximal inhibitory concentration (IC50) for the inhibition of OATP1B1 activity by ATSP-7041 was determined by fitting a curve (inhibitor concentrations vs. normalized response) using GraphPad Prism 8 (GraphPad Software, San Diego, CA, USA). […]

[5] = in vitro; conditions: human, s9, pH 7.4
[6] = target: P-gp (Homo sapiens, UniProt P08183); assay: ATP-dependent uptake by inside-out membrane vesicles expressing P-gp; conditions: NMQ 2 μM
P-gp, sequence (P08183 whole entry): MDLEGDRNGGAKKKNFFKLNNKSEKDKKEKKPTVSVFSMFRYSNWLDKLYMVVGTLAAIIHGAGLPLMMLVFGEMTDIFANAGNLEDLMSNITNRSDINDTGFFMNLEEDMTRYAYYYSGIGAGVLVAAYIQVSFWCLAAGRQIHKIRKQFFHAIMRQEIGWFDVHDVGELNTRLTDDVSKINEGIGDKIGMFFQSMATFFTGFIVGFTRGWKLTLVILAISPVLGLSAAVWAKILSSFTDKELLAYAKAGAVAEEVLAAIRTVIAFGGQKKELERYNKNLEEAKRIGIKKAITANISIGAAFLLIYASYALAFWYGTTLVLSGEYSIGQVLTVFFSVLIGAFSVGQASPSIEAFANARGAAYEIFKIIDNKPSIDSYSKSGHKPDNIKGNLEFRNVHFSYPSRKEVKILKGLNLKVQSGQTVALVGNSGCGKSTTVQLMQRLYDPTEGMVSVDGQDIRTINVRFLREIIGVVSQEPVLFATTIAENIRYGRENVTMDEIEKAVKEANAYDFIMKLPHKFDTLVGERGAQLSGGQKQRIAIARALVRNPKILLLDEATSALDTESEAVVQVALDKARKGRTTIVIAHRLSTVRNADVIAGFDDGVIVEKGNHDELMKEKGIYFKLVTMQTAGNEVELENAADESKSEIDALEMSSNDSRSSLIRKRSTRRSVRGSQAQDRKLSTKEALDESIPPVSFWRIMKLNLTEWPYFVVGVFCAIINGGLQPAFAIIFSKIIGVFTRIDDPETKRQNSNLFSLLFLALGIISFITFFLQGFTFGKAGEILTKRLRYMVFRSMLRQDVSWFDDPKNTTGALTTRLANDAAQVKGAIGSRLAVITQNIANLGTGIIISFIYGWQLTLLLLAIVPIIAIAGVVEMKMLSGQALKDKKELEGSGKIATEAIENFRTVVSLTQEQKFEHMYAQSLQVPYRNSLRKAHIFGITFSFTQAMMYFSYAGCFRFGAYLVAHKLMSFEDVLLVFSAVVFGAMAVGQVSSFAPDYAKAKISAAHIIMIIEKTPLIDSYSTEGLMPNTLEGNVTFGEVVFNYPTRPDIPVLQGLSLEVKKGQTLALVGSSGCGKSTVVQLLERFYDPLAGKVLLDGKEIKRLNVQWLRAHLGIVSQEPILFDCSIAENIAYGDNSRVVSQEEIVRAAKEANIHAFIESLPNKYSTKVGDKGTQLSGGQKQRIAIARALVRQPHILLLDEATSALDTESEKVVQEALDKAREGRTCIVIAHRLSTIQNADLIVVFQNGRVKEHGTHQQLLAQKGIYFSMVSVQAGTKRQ

[7] = target: T3, BCRP (Homo sapiens, UniProt Q9UNQ0); assay: ATP-dependent uptake by inside-out membrane vesicles expressing BCRP; conditions: Lucifer yellow 50 μM
T3 sequence (Q9UNQ0 1-655): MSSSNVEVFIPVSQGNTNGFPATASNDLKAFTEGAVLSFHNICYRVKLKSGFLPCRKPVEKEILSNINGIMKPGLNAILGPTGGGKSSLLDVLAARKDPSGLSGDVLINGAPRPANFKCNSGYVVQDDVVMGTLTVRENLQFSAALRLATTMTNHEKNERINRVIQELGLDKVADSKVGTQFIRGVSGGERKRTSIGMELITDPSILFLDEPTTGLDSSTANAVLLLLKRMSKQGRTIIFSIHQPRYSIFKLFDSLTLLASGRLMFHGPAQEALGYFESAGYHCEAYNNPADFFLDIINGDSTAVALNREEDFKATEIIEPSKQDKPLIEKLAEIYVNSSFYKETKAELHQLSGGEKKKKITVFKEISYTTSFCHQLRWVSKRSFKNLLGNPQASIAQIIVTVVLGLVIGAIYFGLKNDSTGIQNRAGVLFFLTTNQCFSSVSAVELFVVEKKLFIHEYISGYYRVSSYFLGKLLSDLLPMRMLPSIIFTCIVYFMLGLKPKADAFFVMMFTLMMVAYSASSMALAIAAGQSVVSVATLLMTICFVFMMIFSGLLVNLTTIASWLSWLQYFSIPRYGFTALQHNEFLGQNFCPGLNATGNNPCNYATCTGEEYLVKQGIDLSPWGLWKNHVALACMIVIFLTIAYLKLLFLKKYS

Compound: CO[C@H]1/C=C/O[C@@]2(C)Oc3c(C)c(O)c4c(O)c(c(/C=N/N5CCN(C)CC5)c(O)c4c3C2=O)NC(=O)/C(C)=C\C=C\[C@H](C)[C@H](O)[C@@H](C)[C@@H](O)[C@@H](C)[C@H](OC(C)=O)[C@@H]1C [rifampicin]
- uptake of control substrate E217βG by OATP1B1-expressing HEK293 cells with inhibitor, % of without inhibitor ([1]; rifampicin 50 μM, E217βG 1 μM, 5 min co-incubation): < 4%
- effect of index inhibitors on OATP1B1-dependent uptake of ATSP-7041 ([1]; substrate ATSP-7041 0.2 μM, rifampicin 50 μM or cyclosporine 10 μM, 5 and 60 min, 37 °C): significantly inhibited

Compound: C[C@]12CC[C@@H]3c4ccc(O)cc4CC[C@H]3[C@@H]1CC[C@@H]2O[C@@H]1O[C@H](C(=O)O)[C@@H](O)[C@H](O)[C@H]1O [E217βG, Estradiol-17β-glucuronide]
- uptake of control substrate in OATP1B3-transfected HEK293 cells relative to mock cells [2]: ~137 fold
- uptake of control substrate in OATP1B1-transfected HEK293 cells relative to mock cells [3]: approximately 611 fold

- IC50 [4]: 810 nM
- inhibition at 10 µM [4]: > 96%
- remaining at 24 h, 0.5 μM [5]: 91.6%
Compound: CC(=O)N[C@@H](CC(C)C)C(=O)N[C@H](C(=O)N[C@@H](Cc1ccccc1)C(=O)N[C@]1(C)CCCCCCC=CCCC[C@@](C)(C(=O)N[C@@H](CO)C(=O)N[C@@H](C)C(=O)N[C@@H](C)C(N)=O)NC(=O)[C@H](CC2CCC2)NC(=O)[C@H](CCC(N)=O)NC(=O)[C@H](C)NC(=O)[C@H](Cc2c[nH]c3ccccc23)NC(=O)[C@H](Cc2ccc(O)cc2)NC(=O)[C@H](CCC(=O)O)NC1=O)[C@@H](C)O [ATSP-7041]

Compound: C=C[C@H]1C[N+]2(C)CC[C@H]1C[C@@H]2[C@@H](O)c1ccnc2ccc(OC)cc12 [NMQ, N-methyl-quinidine]
- ATP-dependent uptake of positive control substrate by P-gp compared to mock vesicles [6]: clearly observed

Compound: Lucifer yellow
- ATP-dependent uptake of positive control substrate by BCRP compared to mock vesicles [7]: clearly observed
